US20240010635A1, “NOVEL INDIRUBIN DERIVATIVES HAVING HETEROBICYCLIC MOIETIES AND THE USE THEREOF” (priority 2022, published 2024)
Numbering of substitutions follows the chain as printed.

How the values were obtained:
Assay type in all cases: biochemical
[1] = molecular target: T1, RET WT (Homo sapiens, UniProt P07949); test: ADP-Glo kinase assay, RET WT; conditions: recombinant RET wt, 120 min room temperature, read-out: Enzyme activity (IC50, nM) RET WT
T1 construct: Recombinant proteins containing RET wt, RET (M918T) and RET (V804L) domains were purchased from Promega; purchased Promega V8061
T1 sequence (P07949 724-1016 limits assumed): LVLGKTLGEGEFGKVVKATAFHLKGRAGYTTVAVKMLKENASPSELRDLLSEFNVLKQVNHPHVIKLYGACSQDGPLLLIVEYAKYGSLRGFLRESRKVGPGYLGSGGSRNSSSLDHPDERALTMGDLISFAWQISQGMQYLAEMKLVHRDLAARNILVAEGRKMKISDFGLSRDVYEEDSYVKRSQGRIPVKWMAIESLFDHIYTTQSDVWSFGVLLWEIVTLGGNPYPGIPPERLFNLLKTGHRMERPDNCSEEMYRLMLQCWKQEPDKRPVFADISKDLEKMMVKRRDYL
Description: (§1) Analysis performed in two steps. First, after kinase reaction, ADP-Glo™ reagent of equal volume was added to finish kinase reaction, and then the rest ATP was exhausted. Second, Kinase Detection Reagent was added to convert ADP to ATP and newly synthesized ATP was measured by luciferase/luciferin reaction at the same time. Generated light was measured by using luminometer. The measured luminescence amount can be applied to the ATP→ADP standard conversion curve to confirm the correlation with the ADP concentration.
(§2) Recombinant proteins containing RET wt, RET (M918T) and RET (V804L) domains were purchased from Promega (cat #V8061, cat #VA7274, cat #V4473), respectively. According to the manufacturer's instructions, optimal enzyme, ATP, and substrate concentration were established using ADP-Glo™ Kinase Assay (Promega, USA). […] Then, ADP-Glo™ Reagent (5 μl) was added and reacted at room temperature for further 40 min. Lastly, Kinase Detection Reagent (10 μl) was added and reacted for 30 min more at room temperature, and then phosphorylation of substrate peptide was measured by measuring luciferase signal (Integration time 0.5-1 second) using SpectraMax ID5 reader (Molecular Devices LLC., San Jose, CA, USA). IC50 was calculated by nonlinear regression using Prism version 5.01 (GrapghPad).

[2] = molecular target: T2, FLT3 WT (Homo sapiens, UniProt P36888); test: ADP-Glo kinase assay, FLT3 WT; conditions: recombinant FLT3, ADP-Glo, 120 min room temperature; read-out: Enzyme activity (IC50, nM) FLT3 WT
T2 construct: Recombinant proteins containing the FLT3 and FLT3 (D835Y) domains were purchased from Promega; purchased Promega V4064
T2 sequence (P36888 610-943 limits assumed): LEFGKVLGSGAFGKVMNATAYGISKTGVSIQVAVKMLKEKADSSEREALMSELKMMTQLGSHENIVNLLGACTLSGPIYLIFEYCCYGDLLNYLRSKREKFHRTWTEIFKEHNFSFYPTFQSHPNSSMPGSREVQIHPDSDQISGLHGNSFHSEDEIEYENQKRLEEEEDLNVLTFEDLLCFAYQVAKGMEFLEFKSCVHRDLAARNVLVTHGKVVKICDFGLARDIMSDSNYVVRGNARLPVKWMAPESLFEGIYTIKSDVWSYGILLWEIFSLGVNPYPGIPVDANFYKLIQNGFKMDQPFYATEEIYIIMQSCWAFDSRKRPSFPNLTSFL
Description: FLT3 activity inhibition was measured by ADP-Glo kinase assay (Promega, cat #V9101). ADP-Glo kinase analysis method is an emission ADP detect method which measures kinase activity by quantification of ADP amount produced during kinase reaction and provides uniform high-throughput screening method.
as §1
Recombinant proteins containing the FLT3 and FLT3 (D835Y) domains were purchased from Promega (cat #V4064, cat #V4514), respectively. According to the manufacturer's instructions, optimal enzyme, ATP, and substrate concentration were established using the ADP-Glo™ Kinase Assay (Promega, USA). Kinase reaction buffer 5× (200 mM Tris-HCl, pH 7.5, 100 mM MgCl2, 0.5 mg/ml BSA) was diluted and used, and the diluted compound of the present invention (5×, 1 μl), FLT3 enzyme or FLT3/D835Y enzyme (2.5×, 2 μl) and substrate/ATP mixture (2.5×, 2 μl), were mixed sequentially and reacted at room temperature for 120 minutes. Then, ADP-Glo™ Reagent (5 μl) was added and reacted for 40 min at room temperature. Finally, after adding a reagent for detection (Kinase Detection Reagent, 10 μl), reacting at room temperature for 30 min, and then phosphorylation of substrate peptide was measured by measuring luciferase signal (Integration time 0.5-1 second) using SpectraMax ID5 reader (Molecular Devices LLC., San Jose, CA, USA). IC50 was calculated by nonlinear regression using Prism version 5.01 (GrapghPad).

[3] = molecular target: T3, RET M918T (Homo sapiens, UniProt P07949, M918T); test: ADP-Glo kinase assay, RET M918T; conditions: recombinant RET (M918T), 120 min room temperature, read-out: Enzyme activity (IC50, nM) RET M918T
T3 construct: Recombinant proteins containing RET wt, RET (M918T) and RET (V804L) domains were purchased from Promega; purchased Promega VA7274
T3 sequence (P07949 724-1016 M918T limits assumed): T1 sequence (P07949 724-1016 limits assumed) with M195T
Description: as §1, §2

[4] = molecular target: T4, RET V804L (Homo sapiens, UniProt P07949, V804L); test: ADP-Glo kinase assay, RET V804L; conditions: recombinant RET (V804L), 120 min room temperature, read-out: Enzyme activity (IC50, nM) RET V804L
T4 construct: Recombinant proteins containing RET wt, RET (M918T) and RET (V804L) domains were purchased from Promega; purchased Promega V4473
T4 sequence (P07949 724-1016 V804L limits assumed): T1 sequence (P07949 724-1016 limits assumed) with V81L
Description: as §1, §2

For `O=C1Nc2ccc(Br)cc2/C1=C1/Nc2ccccc2/C1=N\OCCN1C[C@H]2C[C@@H]1CN2` [Example 13, (2Z,3E)-3-((2-((1R,4R)-2,5-diazabicyclo[2.2.1]heptan-2-yl)ethoxy)imino)-5′-bromo-[2,3′-biindolinylidene]-2′-one], the IC50 [1] was 1.31 nM, the IC50 [2] was 4.72 nM and the IC50 [3] was 1.03 nM. It also gave an IC50 [4] of 0.376 nM.
In the case of `O=C1Nc2ccc(F)cc2/C1=C1/Nc2ccccc2/C1=N\OCC(=O)N1CC2(CNC2)C1` [Example 18, (2Z,3E)-5′-fluoro-3-((2-oxo-2-(2,6-diazaspiro[3.3]heptan-2-yl)ethoxy)imino)-[2,3′-biindolinylidene]-2′-one], the IC50 [1] is reported as 1.12 nM, the IC50 [2] is reported as 2.15 nM and the IC50 [3] is reported as 0.921 nM. The IC50 [4] was 0.657 nM.
Work on `O=C1Nc2ccccc2/C1=C1/Nc2ccccc2/C1=N\OCCN1C[C@@H]2C[C@H]1CN2` [Example 5, (2Z,3E)-3-((2-((1S,4S)-2,5-diazabicyclo[2.2.1]heptan-2-yl)ethoxy)imino)-[2,3′-biindolinylidene]-2′-one] yielded an IC50 [1] of 1.85 nM, an IC50 [2] of 1.57 nM and an IC50 [3] of 0.771 nM. It also gave an IC50 [4] of 0.851 nM.
Compound `O=C1Nc2ccc(F)cc2/C1=C1/Nc2ccccc2/C1=N\OCCN1C[C@@H]2C[C@H]1CN2` [Example 10, (2Z,3E)-3-((2-((1S,4S)-2,5-diazabicyclo[2.2.1]heptan-2-yl)ethoxy)imino)-5′-fluoro-[2,3′-biindolinylidene]-2′-one] has an IC50 [1] of 0.815 nM, an IC50 [2] of 2.41 nM and an IC50 [3] of 0.617 nM. The IC50 [4] was 0.511 nM.
With `O=C1Nc2ccccc2/C1=C1/Nc2ccccc2/C1=N\OCCN[C@H]1[C@@H]2CNC[C@@H]21` [Example 2, (2Z,3E)-3-((2-((1R,5S,6s)-3-azabicyclo[3.1.0]hexan-6-ylamino)ethoxy)imino)-[2,3′-biindolinylidene]-2′-one] the IC50 [1] was 0.964 nM, the IC50 [2] was 2.49 nM and the IC50 [3] was 1.25 nM. For the same compound, the IC50 [4] was 0.553 nM.
In the case of `O=C1Nc2ccc(F)cc2/C1=C1/Nc2ccccc2/C1=N\OCCN[C@H]1[C@@H]2CNC[C@@H]21` [Example 7, (2Z,3E)-3-((2-((1R,5S,6s)-3-azabicyclo[3.1.0]hexan-6-ylamino)ethoxy)imino)-5′-fluoro-[2,3′-biindolinylidene]-2′-one], the IC50 [1] is reported as 1.03 nM, the IC50 [2] is reported as 1.47 nM and the IC50 [3] is reported as 0.666 nM. The IC50 [4] was 0.742 nM.
Compound `O=C1Nc2ccccc2/C1=C1/Nc2ccccc2/C1=N\OCCN1C[C@H]2C[C@@H]1CN2` [Example 4, (2Z,3E)-3-((2-((1R,4R)-2,5-diazabicyclo[2.2.1]heptan-2-yl)ethoxy)imino)-[2,3′-biindolinylidene]-2′-one] has an IC50 [1] of 0.423 nM, an IC50 [2] of 1.37 nM and an IC50 [3] of 0.348 nM. For the same compound, the IC50 [4] was 0.212 nM.
With `O=C1Nc2ccc(F)cc2/C1=C1/Nc2ccccc2/C1=N\OCCN1C[C@H]2C[C@@H]1CN2` [Example 9, (2Z,3E)-3-((2-((1R,4R)-2,5-diazabicyclo[2.2.1]heptan-2-yl)ethoxy)imino)-5′-fluoro-[2,3′-biindolinylidene]-2′-one] the IC50 [1] was 0.49 nM, the IC50 [2] was 3.87 nM and the IC50 [3] was 1.02 nM. It also gave an IC50 [4] of 0.785 nM.
For `O=C1Nc2ccccc2/C1=C1/Nc2ccccc2/C1=N\OCC(=O)N1C[C@H]2C[C@@H]1CN2` [Example 17, (2Z,3E)-3-((2-((1R,4R)-2,5-diazabicyclo[2.2.1]heptan-2-yl)-2-oxoethoxy)imino)-[2,3′-biindolinylidene]-2′-one], the IC50 [1] was 1.53 nM, the IC50 [2] was 4.24 nM and the IC50 [3] was 1.44 nM. The IC50 [4] was 0.904 nM.
`O=C1Nc2ccc(Cl)cc2/C1=C1/Nc2ccccc2/C1=N\OCCN1C[C@H]2C[C@@H]1CN2` [Example 11, (2Z,3E)-3-((2-((1R,4R)-2,5-diazabicyclo[2.2.1]heptan-2-yl)ethoxy)imino)-5′-chloro-[2,3′-biindolinylidene]-2′-one] gave an IC50 [1] of 1.72 nM, an IC50 [2] of 4.57 nM and an IC50 [3] of 1.27 nM. For the same compound, the IC50 [4] was 1.02 nM.
`O=C1Nc2ccc(F)cc2/C1=C1/Nc2ccccc2/C1=N\OCCN1CC2(CNC2)C1` [Example 6, (2Z,3E)-3-((2-(2,6-diazaspiro[3.3]heptan-2-yl)ethoxy)imino)-5′-fluoro-[2,3′-biindolinylidene]-2′-one] showed an IC50 [1] of 0.668 nM, an IC50 [2] of 2.44 nM and an IC50 [3] of 0.67 nM. The IC50 [4] was 0.797 nM.
Compound `O=C(CO/N=C1/C(=C2/C(=O)Nc3ccccc32)Nc2ccccc21)N[C@H]1[C@@H]2CNC[C@@H]21` [Example 16, N-((1R,5S,6s)-3-azabicyclo[3.1.0]hexan-6-yl)-2-(((E)-((Z)-2′-oxo-[2,3′-biindolinylidene]-3-ylidene)amino)oxy)acetamide] has an IC50 [1] of 0.873 nM, an IC50 [2] of 3.13 nM and an IC50 [3] of 1.19 nM. For the same compound, the IC50 [4] was 0.472 nM.
In the case of `O=C1Nc2ccccc2/C1=C1/Nc2ccccc2/C1=N\OCCN1CC2(CNC2)C1` [Example 1, (2Z,3E)-3-((2-(2,6-diazaspiro[3.3]heptan-2-yl)ethoxy)imino)-[2,3′-biindolinylidene]-2′-one], the IC50 [1] is reported as 1.09 nM, the IC50 [2] is reported as 1.42 nM and the IC50 [3] is reported as 0.449 nM. The IC50 [4] was 1.3 nM.
`O=C1Nc2ccccc2/C1=C1/Nc2ccccc2/C1=N\OCC(=O)N1CC2(CNC2)C1` [Example 15, (2Z,3E)-3-((2-oxo-2-(2,6-diazaspiro[3.3]heptan-2-yl)ethoxy)imino)-[2,3′-biindolinylidene]-2′-one] was tested, and the IC50 [1] was 0.664 nM, the IC50 [2] was 3.41 nM and the IC50 [3] was 1.08 nM. For the same compound, the IC50 [4] was 0.37 nM.
Work on `O=C(CO/N=C1/C(=C2/C(=O)Nc3ccc(F)cc32)Nc2ccccc21)N[C@H]1[C@@H]2CNC[C@@H]21` [Example 19, N-((1R,5S,6s)-3-azabicyclo[3.1.0]hexan-6-yl)-2-(((E)-((Z)-5′-fluoro-2′-oxo-[2,3′-biindolinylidene]-3-ylidene)amino)oxy)acetamide] yielded an IC50 [1] of 1.05 nM, an IC50 [2] of 3.13 nM and an IC50 [3] of 1.39 nM. It also gave an IC50 [4] of 0.419 nM.
